Several values for one entry are separate records, joined by “and”; a condition that tells them apart may be missing. Identical values can stand only once. Like-named read-outs stand apart in the source and are kept apart here. Marks after values point to notes of the source that are not given here.
How the values were obtained:
[1] = system: nitric oxide synthase system; conditions: poultry; for Residual Nitrite, LSMean main effect of Temperature: L-arginine
Protocol: (§1) Fresh ground meat (beef, pork or poultry) was separated in ˜0.5 Kg batches and mixed with 2% salt and 10% added water. […] Each individual batch was mixed (1 min) in a food processor, removed for temperature and pH analyses and then placed into a jerky extruder tube. Approximately 25 g of sample were extruded into 50 mL centrifuge, then capped and labeled and placed into a controlled water batch and heated to a designated internal endpoint temperature (132, 158, or 165° F.).
(§2) Samples also contained 547 ppm sodium erythorbate, a cure accelerator (Phase I) and without sodium erythorbate (Phase II). Samples were placed into test tubes and heated in a controlled water bath to 132, 158 and 165° F. Samples were held in a 40° F. cooler for seven days then tested for residual nitrite. Residual nitrite was tested after deproteinization for amino acid analysis by HPLC. Determination of nitrite (UV/VIS Spectrophotometric Method) was used to detect any residual nitrite for best results in detecting minute amounts of nitrite. Residual nitrite levels were read in a 96 well plate reader at 540 nm.
(§3) Both phases of the experiment were designed as a factorial (concentration level and endpoint temperature) randomized complete block design with three replications. […] Least squares means were generated and Tukey's HSD used to determine significance at P≤0.05.

[2] = system: nitric oxide synthase system; conditions: pork; for Residual Nitrite, LSMean main effect of Temperature: L-arginine
Protocol: as §1, §2, §3

[3] = Phase I, with 547 ppm sodium erythorbate, 1000 ppm L-arginine
[4] = Phase I, with 547 ppm sodium erythorbate, 1000 ppm L-arginine, 132° F.
[5] = Phase I, with 547 ppm sodium erythorbate, 1000 ppm L-arginine, 158° F.
[6] = Phase I, with 547 ppm sodium erythorbate, 1000 ppm L-arginine, 165° F.
[7] = Phase I, with 547 ppm sodium erythorbate, 2000 ppm L-arginine
[8] = Phase I, with 547 ppm sodium erythorbate, 2000 ppm L-arginine, 132° F.
[9] = Phase I, with 547 ppm sodium erythorbate, 2000 ppm L-arginine, 158° F.
[10] = Phase I, with 547 ppm sodium erythorbate, 2000 ppm L-arginine, 165° F.
[11] = Phase I, with 547 ppm sodium erythorbate, 3000 ppm L-arginine
[12] = Phase I, with 547 ppm sodium erythorbate, 3000 ppm L-arginine, 132° F.
[13] = Phase I, with 547 ppm sodium erythorbate, 3000 ppm L-arginine, 158° F.
[14] = Phase I, with 547 ppm sodium erythorbate, 3000 ppm L-arginine, 165° F.
[15] = Phase I, with 547 ppm sodium erythorbate, 4000 ppm L-arginine
[16] = Phase I, with 547 ppm sodium erythorbate, 4000 ppm L-arginine, 132° F.
[17] = Phase I, with 547 ppm sodium erythorbate, 4000 ppm L-arginine, 158° F.
[18] = Phase I, with 547 ppm sodium erythorbate, 4000 ppm L-arginine, 165° F.
[19] = Phase I, with 547 ppm sodium erythorbate, 5000 ppm L-arginine
[20] = Phase I, with 547 ppm sodium erythorbate, 5000 ppm L-arginine, 132° F.
[21] = Phase I, with 547 ppm sodium erythorbate, 5000 ppm L-arginine, 158° F.
[22] = Phase I, with 547 ppm sodium erythorbate, 5000 ppm L-arginine, 165° F.
[23] = Phase I, with 547 ppm sodium erythorbate, 132° F.
[24] = Phase I, with 547 ppm sodium erythorbate, 158° F.
[25] = Phase I, with 547 ppm sodium erythorbate, 165° F.
[26] = Phase II, without 547 ppm sodium erythorbate, 1000 ppm L-arginine
[27] = Phase II, without 547 ppm sodium erythorbate, 1000 ppm L-arginine, 132° F.
[28] = Phase II, without 547 ppm sodium erythorbate, 1000 ppm L-arginine, 158° F.
[29] = Phase II, without 547 ppm sodium erythorbate, 1000 ppm L-arginine, 165° F.
[30] = Phase II, without 547 ppm sodium erythorbate, 2000 ppm L-arginine
[31] = Phase II, without 547 ppm sodium erythorbate, 2000 ppm L-arginine, 132° F.
[32] = Phase II, without 547 ppm sodium erythorbate, 2000 ppm L-arginine, 158° F.
[33] = Phase II, without 547 ppm sodium erythorbate, 2000 ppm L-arginine, 165° F.
[34] = Phase II, without 547 ppm sodium erythorbate, 3000 ppm L-arginine
[35] = Phase II, without 547 ppm sodium erythorbate, 3000 ppm L-arginine, 132° F.
[36] = Phase II, without 547 ppm sodium erythorbate, 3000 ppm L-arginine, 158° F.
[37] = Phase II, without 547 ppm sodium erythorbate, 3000 ppm L-arginine, 165° F.
[38] = Phase II, without 547 ppm sodium erythorbate, 4000 ppm L-arginine
[39] = Phase II, without 547 ppm sodium erythorbate, 4000 ppm L-arginine, 132° F.
[40] = Phase II, without 547 ppm sodium erythorbate, 4000 ppm L-arginine, 158° F.
[41] = Phase II, without 547 ppm sodium erythorbate, 4000 ppm L-arginine, 165° F.
[42] = Phase II, without 547 ppm sodium erythorbate, 5000 ppm L-arginine
[43] = Phase II, without 547 ppm sodium erythorbate, 5000 ppm L-arginine, 132° F.
[44] = Phase II, without 547 ppm sodium erythorbate, 5000 ppm L-arginine, 158° F.
[45] = Phase II, without 547 ppm sodium erythorbate, 5000 ppm L-arginine, 165° F.
[46] = Phase II, without 547 ppm sodium erythorbate, 132° F.
[47] = Phase II, without 547 ppm sodium erythorbate, 158° F.
[48] = Phase II, without 547 ppm sodium erythorbate, 165° F.

N=C(N)NCCC[C@H](N)C(=O)O [L-arginine]
Residual Nitrite, LSMean main effect of Concentration [1, 3]: 65.44^ab ppm and 65.44 ppm | Residual Nitrite, LSMean Conc × Temp [1, 4]: 76.46^ab ppm | Residual Nitrite, LSMean Conc × Temp [1, 5]: 60.52^abc ppm | Residual Nitrite, LSMean Conc × Temp [1, 6]: 59.36^abc ppm | Residual Nitrite, LSMean main effect of Concentration [1, 7]: 72.28^a ppm and 72.28 ppm | Residual Nitrite, LSMean Conc × Temp [1, 8]: 63.44^abc ppm | Residual Nitrite, LSMean Conc × Temp [1, 9]: 77.50^a ppm | Residual Nitrite, LSMean Conc × Temp [1, 10]: 75.91^ab ppm | Residual Nitrite, LSMean main effect of Concentration [1, 11]: 54.95^bc ppm and 54.95 ppm | Residual Nitrite, LSMean Conc × Temp [1, 12]: 60.08^abc ppm | Residual Nitrite, LSMean Conc × Temp [1, 13]: 65.81^abc ppm | Residual Nitrite, LSMean Conc × Temp [1, 14]: 38.96^cd ppm | Residual Nitrite, LSMean main effect of Concentration [1, 15]: 48.16^cd ppm and 48.16 ppm | Residual Nitrite, LSMean Conc × Temp [1, 16]: 50.99^a-d ppm | Residual Nitrite, LSMean Conc × Temp [1, 17]: 49.31^a-d ppm | Residual Nitrite, LSMean Conc × Temp [1, 18]: 44.17^cd ppm | Residual Nitrite, LSMean main effect of Concentration [1, 19]: 38.14^d ppm and 38.14 ppm | Residual Nitrite, LSMean Conc × Temp [1, 20]: 41.15^cd ppm | Residual Nitrite, LSMean Conc × Temp [1, 21]: 25.07^d ppm | Residual Nitrite, LSMean Conc × Temp [1, 22]: 48.20^bcd ppm | Residual Nitrite, LSMean main effect of Temperature [1, 23]: 48.43 ppm | Residual Nitrite, LSMean main effect of Temperature [1, 24]: 55.64 ppm | Residual Nitrite, LSMean main effect of Temperature [1, 25]: 53.32 ppm | Residual Nitrite, LSMean main effect of Concentration [1, 26]: 65.37^a ppm and 65.44 ppm | Residual Nitrite, LSMean Conc × Temperature [1, 27]: 87.36^a ppm | Residual Nitrite, LSMean Conc × Temperature [1, 28]: 63.54^ab ppm | Residual Nitrite, LSMean Conc × Temperature [1, 29]: 45.19^ab ppm | Residual Nitrite, LSMean main effect of Concentration [1, 30]: 66.58^a ppm and 72.28 ppm | Residual Nitrite, LSMean Conc × Temperature [1, 31]: 65.60^ab ppm | Residual Nitrite, LSMean Conc × Temperature [1, 32]: 61.51^ab ppm | Residual Nitrite, LSMean Conc × Temperature [1, 33]: 72.63^ab ppm | Residual Nitrite, LSMean main effect of Concentration [1, 34]: 57.60^ab ppm and 54.95 ppm | Residual Nitrite, LSMean Conc × Temperature [1, 35]: 53.90^ab ppm | Residual Nitrite, LSMean Conc × Temperature [1, 36]: 73.59^a ppm | Residual Nitrite, LSMean Conc × Temperature [1, 37]: 45.32^ab ppm | Residual Nitrite, LSMean main effect of Concentration [1, 38]: 60.63^ab ppm and 48.16 ppm | Residual Nitrite, LSMean Conc × Temperature [1, 39]: 67.76^ab ppm | Residual Nitrite, LSMean Conc × Temperature [1, 40]: 52.15^ab ppm | Residual Nitrite, LSMean Conc × Temperature [1, 41]: 61.99^ab ppm | Residual Nitrite, LSMean main effect of Concentration [1, 42]: 45.02^b ppm and 38.14 ppm | Residual Nitrite, LSMean Conc × Temperature [1, 43]: 53.87^ab ppm | Residual Nitrite, LSMean Conc × Temperature [1, 44]: 30.83^b ppm | Residual Nitrite, LSMean Conc × Temperature [1, 45]: 50.37^ab ppm | Residual Nitrite, LSMean main effect of Temperature [1, 46]: 65.70 ppm | Residual Nitrite, LSMean main effect of Temperature [1, 47]: 56.32^ ppm and 56.32 ppm | Residual Nitrite, LSMean main effect of Temperature [1, 48]: 55.10 ppm | Residual Nitrite, LSMean main effect of Concentration [2, 3]: 57.57 ppm | Residual Nitrite, LSMean Conc × Temp [2, 4]: 39.35 ppm | Residual Nitrite, LSMean Conc × Temp [2, 5]: 70.84 ppm | Residual Nitrite, LSMean Conc × Temp [2, 6]: 62.52 ppm | Residual Nitrite, LSMean main effect of Concentration [2, 7]: 68.91 ppm | Residual Nitrite, LSMean Conc × Temp [2, 8]: 80.08 ppm | Residual Nitrite, LSMean Conc × Temp [2, 9]: 66.63 ppm | Residual Nitrite, LSMean Conc × Temp [2, 10]: 60.04 ppm | Residual Nitrite, LSMean main effect of Concentration [2, 11]: 61.54 ppm | Residual Nitrite, LSMean Conc × Temp [2, 12]: 60.68 ppm | Residual Nitrite, LSMean Conc × Temp [2, 13]: 61.71 ppm | Residual Nitrite, LSMean Conc × Temp [2, 14]: 62.24 ppm | Residual Nitrite, LSMean main effect of Concentration [2, 15]: 52.07 ppm | Residual Nitrite, LSMean Conc × Temp [2, 16]: 48.21 ppm | Residual Nitrite, LSMean Conc × Temp [2, 17]: 52.12 ppm | Residual Nitrite, LSMean Conc × Temp [2, 18]: 55.87 ppm | Residual Nitrite, LSMean main effect of Concentration [2, 19]: 64.52 ppm | Residual Nitrite, LSMean Conc × Temp [2, 20]: 40.28 ppm | Residual Nitrite, LSMean Conc × Temp [2, 21]: 65.12 ppm | Residual Nitrite, LSMean Conc × Temp [2, 22]: 88.16 ppm | Residual Nitrite, LSMean main effect of Temperature [2, 23]: 53.72 ppm | Residual Nitrite, LSMean main effect of Temperature [2, 24]: 63.29 ppm | Residual Nitrite, LSMean main effect of Temperature [2, 25]: 65.72 ppm | Residual Nitrite, LSMean main effect of Concentration [2, 26]: 73.46^b ppm and 73.46 ppm | Residual Nitrite, LSMean Conc × Temperature [2, 27]: 53.73^c ppm | Residual Nitrite, LSMean Conc × Temperature [2, 28]: 84.43^bc ppm | Residual Nitrite, LSMean Conc × Temperature [2, 29]: 82.22^bc ppm | Residual Nitrite, LSMean main effect of Concentration [2, 30]: 94.97^ab ppm and 94.97 ppm | Residual Nitrite, LSMean Conc × Temperature [2, 31]: 85.87^bc ppm | Residual Nitrite, LSMean Conc × Temperature [2, 32]: 113.28^ab ppm | Residual Nitrite, LSMean Conc × Temperature [2, 33]: 85.76^bc ppm | Residual Nitrite, LSMean main effect of Concentration [2, 34]: 85.31^ab ppm and 85.31 ppm | Residual Nitrite, LSMean Conc × Temperature [2, 35]: 68.26^bc ppm | Residual Nitrite, LSMean Conc × Temperature [2, 36]: 90.54^bc ppm | Residual Nitrite, LSMean Conc × Temperature [2, 37]: 97.13^bc ppm | Residual Nitrite, LSMean main effect of Concentration [2, 38]: 102.65^a ppm and 102.65 ppm | Residual Nitrite, LSMean Conc × Temperature [2, 39]: 71.48^bc ppm | Residual Nitrite, LSMean Conc × Temperature [2, 40]: 150.78^a ppm | Residual Nitrite, LSMean Conc × Temperature [2, 41]: 85.70^bc ppm | Residual Nitrite, LSMean main effect of Concentration [2, 42]: 72.06^b ppm and 72.06 ppm | Residual Nitrite, LSMean Conc × Temperature [2, 43]: 59.74^c ppm | Residual Nitrite, LSMean Conc × Temperature [2, 44]: 77.63^bc ppm | Residual Nitrite, LSMean Conc × Temperature [2, 45]: 78.82^bc ppm | Residual Nitrite, LSMean main effect of Temperature [2, 46]: 67.81^c ppm and 67.81 ppm | Residual Nitrite, LSMean main effect of Temperature [2, 47]: 103.33^a ppm and 103.33 ppm | Residual Nitrite, LSMean main effect of Temperature [2, 48]: 85.93^b ppm and 85.93 ppm
